Source: patent publication US20250296959A1, “B7-H3 TARGETING PEPTIDES AND CONSTRUCTS THEREOF” (Mariana Oncology Inc., priority 2024, published 2025)
Starred links: 1 amine or outer side, 2 acyl side, 3 side chain; linkers in the order of their positions; H or OH if unused. Positions of bridges follow the written chain, without caps; N, C: chain ends. Non-standard residues stand in square brackets, D forms with d. Residues, ends and D or L forms follow the SMILES beside them. Groups on a side chain read outwards from the residue. *: point of attachment. Ala(1-CH2CO2H-4-piperidyl) = N[C@@H](CC1CCN(CC(=O)O)CC1)C(=O)O; Ala(piperidin-4-yl) = O=C([C@H](CC1CCN([*:3])CC1)N[*:1])[*:2]; Phe(3-CH2NH2) = O=C([C@H](Cc1cccc(CN[*:3])c1)N[*:1])[*:2]; DOTA = O=C(O)CN1CCN(CC(=O)O)CCN(CC(=O)*)CCN(CC(=O)O)CC1; Trp(5-F) = N[C@@H](Cc1c[nH]c2ccc(F)cc12)C(=O)O; X1 = C[C@@H](c1ccccc1)[C@H](N[*:1])C(=O)[*:2]; γGlu = O=C(O)[C@H](CCC(=O)[*:2])N[*:1]; 1Nal = N[C@@H](Cc1cccc2ccccc12)C(=O)O; Ala(4-THP) = N[C@@H](CC1CCOCC1)C(=O)O; Val(3-OH) = CC(C)(O)[C@H](N)C(=O)O; hCha = N[C@@H](CCC1CCCCC1)C(=O)O; 4Pal = N[C@@H](Cc1ccncc1)C(=O)O; Abu(4-CN) = N#CCC[C@H](N)C(=O)O; Cha = N[C@@H](CC1CCCCC1)C(=O)O; Tle = CC(C)(C)[C@H](N)C(=O)O; hLeu = CC(C)CC[C@H](N)C(=O)O; NMeS = CN[C@@H](CO)C(=O)O; CH2 = C([*:1])[*:2]

target: T1, human 4lg B7-H3 (Homo sapiens, UniProt Q5ZPR3); assay: Affinity determination by surface plasmon resonance (SPR) to 4Ig B7-H3; details: SPR KD—25° C., 4Ig B7-H3; 25° C. flow cell temperature
T1 sequence (Q5ZPR3 29-534): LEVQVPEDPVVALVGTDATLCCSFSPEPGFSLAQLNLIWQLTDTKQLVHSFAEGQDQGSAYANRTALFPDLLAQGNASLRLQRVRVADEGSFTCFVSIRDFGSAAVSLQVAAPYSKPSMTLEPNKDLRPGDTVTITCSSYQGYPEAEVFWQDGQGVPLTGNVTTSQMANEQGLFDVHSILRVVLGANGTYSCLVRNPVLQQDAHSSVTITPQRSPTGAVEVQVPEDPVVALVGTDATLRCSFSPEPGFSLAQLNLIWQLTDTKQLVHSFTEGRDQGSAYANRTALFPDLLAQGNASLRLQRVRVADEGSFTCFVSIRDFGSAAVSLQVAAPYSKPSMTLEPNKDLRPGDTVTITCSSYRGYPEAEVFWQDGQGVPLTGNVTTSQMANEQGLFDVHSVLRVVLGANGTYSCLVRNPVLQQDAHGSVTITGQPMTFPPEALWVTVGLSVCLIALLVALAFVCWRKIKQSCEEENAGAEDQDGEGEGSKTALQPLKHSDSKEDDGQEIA

| Kd | SMILES |
| --- | --- |
| 100 to 300 nM | CC(=O)N[C@@H](CCC(C)C)C(=O)N[C@@H](Cc1ccc(O)cc1)C(=O)N[C@H]1CSSC[C@@H](C(=O)N[C@@H](Cc2cccc3ccccc23)C(=O)N[C@@H](Cc2ccccc2)C(=O)N(C)[C@@H](CO)C(=O)N[C@H](CCCCNC(=O)CN2CCN(CC(=O)O)CCN(CC(=O)O)CCN(CC(=O)O)CC2)C(N)=O)NC(=O)[C@H](CCC#N)NC(=O)[C@H](C(C)C)NC(=O)[C@H](CC(=O)O)NC(=O)[C@H](Cc2ccncc2)NC(=O)[C@H](CCCCN)NC(=O)CNC(=O)[C@H](C(C)(C)C)NC1=O [compound 221, Ac-hLeu-Y-C-Tbg-G-K-4PyA-D-V-CyanoButric-C-1Nal-F-NMeSer-dLys(DOTA)-CONH2] (Ac-[hLeu]YC[Tle]GK[4Pal]DV[Abu(4-CN)]C[1Nal]F[NMeS][dK](DOTA)-NH2; disulfide 3-11) |
| 10 to 100 nM | CC(=O)N[C@@H](CCC(C)C)C(=O)N[C@@H](Cc1ccc(O)cc1)C(=O)N[C@H]1CSSC[C@@H](C(=O)N[C@@H](Cc2c[nH]c3ccccc23)C(=O)N[C@@H](Cc2ccccc2)C(=O)N[C@H](C(N)=O)[C@@H](C)O)NC(=O)[C@H](Cc2ccc(O)cc2)NC(=O)[C@H](CCCCNC(=O)CN2CCN(CC(=O)O)CCN(CC(=O)O)CCN(CC(=O)O)CC2)NC(=O)[C@H](CC(=O)O)NC(=O)[C@H](Cc2ccc(O)cc2)NC(=O)[C@H](CCCCN)NC(=O)CNC(=O)[C@H](C(C)C)NC1=O [compound 143, Ac-hLeu-Y-C-V-G-K-Y-D-Lys(DOTA)-Y-C-W-F-Thr-CONH2] (Ac-[hLeu]YCVGKYDK(DOTA)YCWFT-NH2; disulfide 3-11) |
| 1 to 10 nM | CC[C@H](C)[C@@H]1NC(=O)[C@@H](NC(=O)[C@H](Cc2ccc(O)cc2)NC(=O)[C@H](CCC(C)C)NC(C)=O)CSSC[C@@H](C(=O)N[C@@H](Cc2c[nH]c3ccc(F)cc23)C(=O)N[C@@H](Cc2ccccc2)C(=O)N2CCC[C@H]2C(N)=O)NC(=O)[C@H](Cc2ccc(O)cc2)NC(=O)[C@H](C(C)C)NC(=O)[C@H](CC(=O)O)NC(=O)[C@H](CC2CCOCC2)NC(=O)[C@H](CCCCNC(=O)CN2CCN(CC(=O)O)CCN(CC(=O)O)CCN(CC(=O)O)CC2)NC(=O)CNC1=O [compound 261, Ac-hLeu-Y-C-Ile-G-Lys(DOTA)-ThpA-D-V-Y-C-5FW-F-Pro-CONH2] (Ac-[hLeu]YCIGK(DOTA)[Ala(4-THP)]DVYC[Trp(5-F)]FP-NH2; disulfide 3-11) |
| 1 to 10 nM | CC(=O)N[C@@H](CCC(C)C)C(=O)N[C@@H](Cc1ccc(O)cc1)C(=O)N[C@H]1CSSC[C@@H](C(=O)N[C@@H](Cc2cccc3ccccc23)C(=O)N[C@@H](Cc2ccccc2)C(=O)N2CCC[C@H]2C(=O)N[C@H](CCCCNC(=O)CC[C@H](NC(=O)CC[C@H](NC(=O)CC[C@H](NC(=O)CN2CCN(CC(=O)O)CCN(CC(=O)O)CCN(CC(=O)O)CC2)C(=O)O)C(=O)O)C(=O)O)C(N)=O)NC(=O)[C@H](Cc2ccc(O)cc2)NC(=O)[C@H](C(C)C)NC(=O)[C@H](CC(=O)O)NC(=O)[C@H](CC2CCCCC2)NC(=O)[C@H](CC2CCNCC2)NC(=O)CNC(=O)[C@H](C(C)(C)C)NC1=O [compound 278, Ac-hLeu-Y-C-Tbg-G-PipAla-CHA-D-V-Y-C-1Nal-F-Pro-dLys(gE-gE-DOTA)-CONH2] (Ac-[hLeu]YC[Tle]G[Ala(piperidin-4-yl)][Cha]DVYC[1Nal]FP[dK]([γGlu-γGlu-γGlu-DOTA])-NH2; disulfide 3-11) |
| 100 to 300 nM | CC(=O)N[C@@H](CCC(C)C)C(=O)N[C@@H](Cc1ccc(O)cc1)C(=O)N[C@H]1CSCSC[C@@H](C(=O)N[C@@H](Cc2cccc3ccccc23)C(=O)N[C@@H](Cc2ccccc2)C(=O)N(C)[C@@H](CO)C(=O)N[C@H](CCCCNC(=O)CN2CCN(CC(=O)O)CCN(CC(=O)O)CCN(CC(=O)O)CC2)C(N)=O)NC(=O)[C@H](Cc2ccc(O)cc2)NC(=O)[C@H](C(C)C)NC(=O)[C@H](CC(=O)O)NC(=O)[C@H](Cc2ccncc2)NC(=O)[C@H](CCCCN)NC(=O)CNC(=O)[C@H](C(C)(C)C)NC1=O [compound 297, Ac-hLeu-Y-C(CH2)-Tbg-G-K-4PyA-D-V-Y-C-1Nal-F-NMeSer-dLys(DOTA)-CONH2] (Ac-[hLeu]YC[Tle]GK[4Pal]DVYC[1Nal]F[NMeS][dK](DOTA)-NH2; linker 3-11 via CH2) |
| 1 to 10 nM | CC(=O)N[C@@H](CCC(C)C)C(=O)N[C@@H](Cc1ccc(O)cc1)C(=O)N[C@H]1CSSC[C@@H](C(=O)N[C@@H](Cc2c[nH]c3ccc(F)cc23)C(=O)N[C@@H](Cc2ccccc2)C(=O)N[C@H](C(N)=O)[C@@H](C)O)NC(=O)[C@H](Cc2cccc(CNC(=O)CN3CCN(CC(=O)O)CCN(CC(=O)O)CCN(CC(=O)O)CC3)c2)NC(=O)[C@H](C(C)C)NC(=O)[C@H](CC(=O)O)NC(=O)[C@H](Cc2ccc(O)cc2)NC(=O)[C@H](CCCCN)NC(=O)CNC(=O)[C@H](C(C)C)NC1=O [compound 183, Ac-hLeu-Y-C-V-G-K-Y-D-V-MAF(DOTA)-C-5FW-F-Thr-CONH2] (Ac-[hLeu]YCVGKYDV[Phe(3-CH2NH2)](DOTA)C[Trp(5-F)]FT-NH2; disulfide 3-11) |
| 1 to 10 nM | CC(=O)N[C@@H](CCC(C)C)C(=O)N[C@@H](Cc1ccc(O)cc1)C(=O)N[C@H]1CSSC[C@@H](C(=O)N[C@@H](Cc2cccc3ccccc23)C(=O)N[C@@H](Cc2ccccc2)C(=O)N2CCC[C@H]2C(=O)N[C@H](CCCCNC(=O)CN2CCN(CC(=O)O)CCN(CC(=O)O)CCN(CC(=O)O)CC2)C(N)=O)NC(=O)[C@H](Cc2ccc(O)cc2)NC(=O)[C@H](C(C)C)NC(=O)[C@H](CC(=O)O)NC(=O)[C@H](Cc2ccc(O)cc2)NC(=O)[C@H](CCCCN)NC(=O)CNC(=O)[C@H](C(C)C)NC1=O [compound 245, Ac-hLeu-Y-C-V-G-K-Y-D-V-Y-C-1Nal-F-Pro-dLys(DOTA)-CONH2] (Ac-[hLeu]YCVGKYDVYC[1Nal]FP[dK](DOTA)-NH2; disulfide 3-11) |

same assay, conditions: SPR KD—37° C., 4Ig B7-H3; 37° C. flow cell temperature

| Kd | SMILES |
| --- | --- |
| 1 to 10 nM | CC(=O)N[C@@H](CC1CCCCC1)C(=O)N[C@@H](Cc1ccc(O)cc1)C(=O)N[C@H]1CSSC[C@@H](C(=O)N[C@@H](Cc2c[nH]c3ccc(F)cc23)C(=O)N[C@@H](Cc2ccccc2)C(=O)N[C@H](C(=O)N[C@H](CCCCNC(=O)CN2CCN(CC(=O)O)CCN(CC(=O)O)CCN(CC(=O)O)CC2)C(=O)O)C(C)(C)O)NC(=O)[C@H](Cc2ccc(O)cc2)NC(=O)[C@H](C(C)C)NC(=O)[C@H](CC(=O)O)NC(=O)[C@H](CC2CCOCC2)NC(=O)[C@H](CCCCN)NC(=O)CNC(=O)[C@H](C(C)(C)C)NC1=O [compound 367, Ac-Cha-Y-C-Tbg-G-K-ThpA-D-V-Y-C-5FW-F-hydroxyVal-dLys(DOTA)-COOH] (Ac-[Cha]YC[Tle]GK[Ala(4-THP)]DVYC[Trp(5-F)]F[Val(3-OH)][dK](DOTA)-OH; disulfide 3-11) |
| < 1 nM | CC(=O)N[C@@H](CCC1CCCCC1)C(=O)N[C@@H](Cc1ccc(O)cc1)C(=O)N[C@H]1CSSC[C@@H](C(=O)N[C@@H](Cc2c[nH]c3ccc(F)cc23)C(=O)N[C@@H](Cc2ccccc2)C(=O)N[C@H](C(=O)N[C@H](C)C(=O)O)C(C)(C)O)NC(=O)[C@H](Cc2ccc(O)cc2)NC(=O)[C@H](C(C)C)NC(=O)[C@H](CC(=O)O)NC(=O)[C@H](CC2CCOCC2)NC(=O)[C@H](CC2CCN(C(=O)CC[C@H](NC(=O)CC[C@H](NC(=O)CN3CCN(CC(=O)O)CCN(CC(=O)O)CCN(CC(=O)O)CC3)C(=O)O)C(=O)O)CC2)NC(=O)CNC(=O)[C@H](C(C)(C)C)NC1=O [compound 487, Ac-hCha-Y-C-Tbg-G-Pip(gE-gE-DOTA)Ala-ThpA-D-V-Y-C-5FW-F-hydroxyVal-dAla-COOH] (Ac-[hCha]YC[Tle]G[Ala(piperidin-4-yl)]([γGlu-γGlu-DOTA])[Ala(4-THP)]DVYC[Trp(5-F)]F[Val(3-OH)][dA]-OH; disulfide 3-11) |
| < 1 nM | CC(=O)N[C@@H](CCC(C)C)C(=O)N[C@@H](Cc1ccc(O)cc1)C(=O)N[C@H]1CSSC[C@@H](C(=O)N[C@@H](Cc2c[nH]c3ccc(F)cc23)C(=O)N[C@H](C(=O)N[C@H](C(=O)N[C@H](CCCCNC(=O)CN2CCN(CC(=O)O)CCN(CC(=O)O)CCN(CC(=O)O)CC2)C(N)=O)C(C)(C)O)[C@@H](C)c2ccccc2)NC(=O)[C@H](Cc2ccc(O)cc2)NC(=O)[C@H](C(C)C)NC(=O)[C@H](CC(=O)O)NC(=O)[C@H](CC2CCOCC2)NC(=O)[C@H](CC2CCNCC2)NC(=O)CNC(=O)[C@H](C(C)(C)C)NC1=O [compound 502, Ac-hLeu-Y-C-Tbg-G-PipAla-ThpA-D-V-Y-C-5FW-[(2S, 3S)beta-Me-Phe]-hydroxyVal-dLys(DOTA)-CONH2] (Ac-[hLeu]YC[Tle]G[Ala(piperidin-4-yl)][Ala(4-THP)]DVYC[Trp(5-F)][X1][Val(3-OH)][dK](DOTA)-NH2; disulfide 3-11) |
| 10 to 100 nM | CC[C@H](C)[C@@H]1NC(=O)[C@@H](NC(=O)[C@H](Cc2ccc(O)cc2)NC(=O)[C@H](CCC(C)C)NC(C)=O)CSSC[C@@H](C(=O)N[C@@H](Cc2c[nH]c3ccc(F)cc23)C(=O)N[C@@H](Cc2ccccc2)C(=O)N[C@H](C(=O)O)C(C)(C)O)NC(=O)[C@H](Cc2ccc(O)cc2)NC(=O)[C@H](C(C)C)NC(=O)[C@H](CC(=O)O)NC(=O)[C@H](CC2CCN(CC(=O)O)CC2)NC(=O)[C@H](CCCCNC(=O)CN2CCN(CC(=O)O)CCN(CC(=O)O)CCN(CC(=O)O)CC2)NC(=O)CNC1=O [compound 324, Ac-hLeu-Y-C-Ile-G-Lys(DOTA)-Pip(CH2COOH)Ala-D-V-Y-C-5FW-F-hydroxyVal-COOH] (Ac-[hLeu]YCIGK(DOTA)[Ala(1-CH2CO2H-4-piperidyl)]DVYC[Trp(5-F)]F[Val(3-OH)]-OH; disulfide 3-11) |
